Measured values as given in patent US20260294913A1, “COMBINATION THERAPY OF DACOMITINIB AND NINTEDANIB FOR PREVENTION OR TREATMENT OF PULMONARY FIBROSIS” (KOREA INSTITUTE OF RADIOLOGICAL & MEDICAL SCIENCES, priority 2023, published 2026).

Tested on: mice with radiation-induced pulmonary fibrosis
Test: Inhibitory effect on radiation-induced pulmonary fibrosis in mice (micro-CT, H&E and Masson's Trichrome staining)
Format: in vivo, C57BL/6 mice
Conditions: first dose 1 h prior to SBRT (90 Gy), two weeks after radiation, as compared to untreated group
Description: Seven-week-old male C57BL/6 mice were divided into groups receiving nintedanib, which is an FDA-approved pulmonary fibrosis inhibitor, dacomitinib, which is an EGFR TKI, and a combination thereof, and orally administered one hour prior to stereotactic body radiation therapy (SBRT) (90 Gy, 4 mm collimator). Two weeks after radiation, the degree of pulmonary fibrosis and the inhibitory effect on radiation-induced lung injury were observed.
The nintedanib group received 60 mg/kg daily, the dacomitinib group received 10 mg/kg daily, and the combination group received 60 mg/kg of nintedanib and 10 mg/kg of dacomitinib. All drugs were orally administered daily. In addition, to analyze the degree of inflammatory response and the degree of fibrosis, H&E staining and Masson's Trichrome staining were performed and the grade of pulmonary fibrosis and the degree of collagen deposition are graphically represented in FIG. 2.

| SMILES | degree of pulmonary fibrosis (nintedanib alone, 60 mg/kg daily oral) | degree of pulmonary fibrosis (dacomitinib alone, 10 mg/kg daily oral) |
| --- | --- | --- |
| COC(=O)c1ccc2c(c1)NC(=O)/C2=C(\Nc1ccc(N(C)C(=O)CN2CCN(C)CC2)cc1)c1ccccc1 [nintedanib, methyl (3Z)-3-{[(4-(methyl[(4-methylpiperazin-1-yl)acetyl]amino}phenyl)amino](phenyl)methylidene)-2-oxo-2,3-dihydro-1H-indole-6-carboxylate] | reduced fibrosis | – |
| COc1cc2ncnc(Nc3ccc(F)c(Cl)c3)c2cc1NC(=O)/C=C/CN1CCCCC1 [dacomitinib, (E)-N-(4-((3-chloro-4-fluorophenyl)amino)-7-methoxyquinazolin-6-yl)-4-(piperidin-1-yl) but-2-enamide] | – | reduced fibrosis |
